Key:
[1] = system: normotensive cynomolgus monkeys; assay: IOP and slit lamp examination in normotensive cynomolgus monkeys after topical lipid; format: in vivo
Method: Lipids were topically administered in 1 μl volume around ˜1 pm in the afternoon. The right eye was treated with vehicle alone, and the left eye was treated with lipid. The cynomolgus monkeys (n=4) were treated with […] lipid (except C17S1P which was 50 nM) for 5 days. Monkeys were subjected to slit lamp examination and IOP measurement prior to and after treatment. The IOP measured 3-6 hours post-treatment on the fifth day of treatment is depicted as solid bars. The hollow bars are control (vehicle only (5% DMSO)).
Experimental design: The IOP-reducing activity of six lipids was tested in the eyes of cynomolgus monkeys (n=4 animals for each lipid). Baseline slit lamp biomicroscopic examination (SLE) and IOP for each group of animals was measured prior to topical application of lipids. The SLE and IOP were then measured at 3-6 hours posttreatment. One eye of each monkey received topical application with the lipid suspended in vehicle (1% dimethylsulfoxide (DMSO)), and the contralateral eye was treated with vehicle only. All topical applications contained 10 picomole of lipid (except C17S1P, which was 50 nM). […] The IOP was measured using a minified Goldmann applanation tonometer.

DBA/2J mice = assay: IOP lowering after topical application in DBA/2J mice; format: in vivo, mouse; settings: DBA/2J mouse at 8 months, IOP ~35 mm of Hg, topical once daily up to 7 days
Method: The right eye was treated with vehicle alone and left eye treated with lipid. Control had both eyes treated with vehicle. A. In DBA/2J mice the indicated lipid in vehicle or control (vehicle only) were administered one daily at around 7.5 months of age in mice which were noted to have a IOP≥18 mm of Hg (20% increase from an average baseline of 15 mm of Hg was employed as treatment point). The average IOP recordings are shown for indicated lipids. B. A 10 picomole each of six PC (13:0/13:0; PE (18:0/18:0), Lyso-PS 18:0, PS 18:1, Sphinganine and C17S1P) were combined and applied as a topical dose once daily for up to 7 days on DBA/2J mouse eyes in 5% DMSO (vehicle). […] Transgenic myocillin mice [Tg-MYOC(Y437H)] subjected to a topical dose of indicated lipids as noted above (FIG. 5C). The IOP lowering compared to control was noted on day 4 and 6 as shown.
Intraocular pressure lowering in mouse models. The endogenous lipids lowered IOP in a DBA/2J mouse model of glaucoma (FIG. 5A). DBA/2J is the only known mouse animal where elevation of IOP occur spontaneously. Although this mouse also suffers from pigmentary dispersion, however, elevation of IOP appears not to correlate with […]. The lipids as indicated were applied as a topical dose (10 pmole in 5% DMSO as vehicle). The 5% DMSO only vehicle served as a control (FIG. 5A). […] A 10 picomole each of six PC (13:0/13:0; PE (18:0/18:0), Lyso-PS 18:0, PS 18:1, Sphinganine, and C17S1P) were combined and applied as a topical dose once daily for up to 7 days on DBA/2J mouse eyes in 5% DMSO (vehicle) (in other words, 10 picomoles of each PC was included). […] In addition to the DBA/2J model described here, these endogenous lipids lowered IOP in cochlin and connective tissue growth factor (CTGF) over-expression models. […] Thus the endogenous lipids assessed here lowered IOP in vastly different DBA/2J and MYOC(Y437H) mouse models as well as in cochlin and CTGF overexpression models covering a broad swath of four rodent glaucoma models that encompass induced as well as spontaneous IOP elevation.
Topical application of lipids and measurement of IOP: The lipids were topically applied as 1 μl drops with 10 pmole lipids. Pressure was measured with a tonolab (Colonial
Medical Supplies, N.H.) or with an assembled cannulation device, used in our laboratory. An initial assessment had utilized 10% DMSO as vehicle. However, all data reported here utilized 5% DMSO.

| SMILES | IOP reduction ([1]; topical 10 picomole (C17S1P 50 nM), 5 days, IOP 3-6 hours post-treatment) | adverse side effects or toxicity ([1]; topical, slit lamp examination) | lowering of IOP after elevation, short term application (FIG. 5B) (DBA/2J mice) |
| --- | --- | --- | --- |
| CCCCCCCCCCCCCCCCCC(=O)OC[C@@H](O)COP(=O)(O)OC[C@H](N)C(=O)O [PS18:0 Lyso-PS] | reduced IOP significantly | without additional adverse side effects or toxicity | – |
| CCN[C@H]1C[C@H](C)S(=O)(=O)c2sc(S(N)(=O)=O)cc21 [Dorzolamide, reference compound] | – | – | same level of IOP reduction as Timolol |
